Type in all cases: in vivo, rat
Data set [1] deals with Rats treated with scopolamine. The experiment in a line: Morris water maze in scopolamine-induced memory impairment. As to conditions: scopolamine 1 mg/kg sc, CR4056 20 mg/kg os, mean over four days. How it is done:
FIG. 4 reports the results of the Morris Water Maze test in the model of scopolamine-induced memory loss. Rats treated with scopolamine (Sco, 1 mg/kg) or physiological solution (Sal) received CR4056 20 mg/kg/die or its vehicle (MC). Data represented the mean time spent to reach the hidden platform over four days. Two way ANOVA. Tukey Comparison test. ** P<0.01.
The Morris water maze test was used to evaluate cognitive function distinct in two phases: first, the acquisition and spatial localization of a hidden platform and, subsequently, the processing, consolidating, retaining and then retrieving the acquired information to successfully locate the platform to escape the water.
Place navigation required the rats to learn to swim from any starting position to the escape platform, thereby acquiring a long-term memory of the platform's spatial location. Animals were placed into various quadrants of the pool and the time elapsed and the distance traversed to reach the hidden platform was recorded. Various objects were placed in the testing room so that the animals used these visual cues as a means of navigating in the Maze. After repeated entry into the Maze, the animals became more and more efficient at locating the platform, thus escaping the water by learning the location of the platform relative to the distal visual cues. […]

A short description of data set [2]: Brain penetration: plasma and brain levels by LC/MS/MS after oral administration. Particulars: 30 mg/kg PO, fasted; for concentration at 1 h / Kp at 1 h: male, Sprague Dawley, rat, po, 30 mg/kg; for Kp at 1 h: brain/plasma. The procedure:
CR 4056 was determined in rat plasma and in rat brain and plasma using a LC/MS/MS method. Male Sprague Dawley rats, Harlan, were treated orally with a CR 4056 suspension (Methocel 0.5%) at the dose of 30 mg/kg. Oral administration was performed by gastric gavage to 3 animals per group (5 ml/kg). The compound was detected in plasma and in brain 1 hour after the treatment.
Each rat brain was weighted and cut in half. Each cerebral hemisphere was weighted and homogenized with two different methodologies. One was liquidization by Ultra turrax tube drive (IKA), adding an aliquot of buffer solution (10 mM ammonium formate pH 3.5) three times the weight of the hemisphere. Then 30 μl of the extract solution were added to 0.25 ml of methanol in a 1.5 ml eppendorf tube, vortex-mixed and centrifugated for 5 min at 13500 rpm at 4° C. the supernatant was transferred to a 96-deep well plates 2 mL round (Axygen) and injected into the LC/MS/MS system. The second one was cryogenic grinding with Mikro Dismembrator (Sartorius). Each cerebral hemisphere was weighted, put in a 20 mL teflon vessel with a steel sphere (7.85 g/ml dia 10 mm) and frozen by immersion in liquid nitrogen for 5 minutes. The deep frozen brain was ground with Mikro Dismembrator at 2500 rpm for 30 sec, the freezing/grinding cycle was repeated twice. A portion of powder was accurately weighted (ca. 10 mg) in a 1.5 ml eppendorf tube, 0.25 ml of methanol were then added. After vortex-mixing and centrifugation for 5 min at 13500 rpm at 4° C., the supernatant was placed in a 96-deep well plates 2 mL round (Axygen) and injected into the LC/MS/MS system. Both methods used for homogenization gave similar results showing that the extraction efficiency was similar for both methods.
Individual plasma and brain levels and brain plasma ratio after oral administration (30 mg/kg) of CR 4056 suspension to male Sprague Dawley rats in fasted conditions (rats were scarified 60 minutes after the PO administration) are shown in the following table.

The subject of data set [3] is rats. The data set is described as follows: Irwin test (neurobehavioral changes). Particulars: suprapharmacological concentrations. The text has this:
(§1) These findings indicate that CR4056 could be a safe drug for treating neurodegenerative diseases, and, in particular, Alzheimer disease.

The test system of data set [4] is rats. The data set is described as follows: Rotarod and open field tests (motor coordination and locomotor activity). Particulars: suprapharmacological concentrations.
Excerpt: as §1
In general terms: Falling from the rotarod earlier than controls is read as motor impairment.

The mark [5] stands for this setting: individual male Sprague Dawley rats, 1 h.

The structures appear in SMILES notation. Where “and” joins values, the source holds several entries; their conditions need not be identical. Equal values may be shown once. Read-outs that look alike come from different tables or passages of the source.

As for `c1ccc(-c2ncc3cc(-n4ccnc4)ccc3n2)cc1` [CR4056, 2-phenyl-6-(1H-imidazol-1-yl)quinazoline], the “Time to reach the hidden platform, Morris water maze” value in data set [1] is “significantly reduced the time taken to get to the platform”. In addition, the Brain/plasma ratio in data set [2] (setting [5]) was 12.4 and 11.4. Besides, the “Mean Brain Concentration” value in data set [2] (setting [5]) is 35492 ng/g and 27745 ng/g. The “Plasmatic Concentration” value in data set [2] (setting [5]) was 2860 ng/mL and 2430 ng/mL. Besides, the concentration at 1 h came out at 33600 ng/g in data set [2] (brain, individual male Sprague Dawley rats, read-out: Mean Brain Concentration); 32300 ng/g in data set [2] (brain, male Sprague Dawley rats, read-out: Mean Brain Concentration, mean of 3 rats); 2860 ng/mL in data set [2] (plasma, individual male Sprague Dawley rats, read-out: Plasmatic Concentration); 2720 ng/mL in data set [2] (plasma, male Sprague Dawley rats, read-out: Plasmatic Concentration, mean of 3 rats). In addition, the Kp at 1 h in data set [2] (individual male Sprague Dawley rats, read-out: Brain/plasma ratio) is 11.7; in data set [2] (male Sprague Dawley rats, read-out: Brain/plasma ratio, mean of 3 rats), 11.8. In addition, in the data set with rats [3], the “Neurobehavioral changes (Irwin test)” value is “neither neurobehavioral changes”. The “Impairment of motor coordination and locomotor activity (rotarod and open field tests)” value in the data set on rats [4] is “nor impairment of motor coordination and locomotor activity”.

Source of the values: patent publication US20240091227A1, “Use Of 2-Phenyl-6-(1H-Imidazol-1-YL) Quinazoline For Treating Neurodegenerative Diseases, Preferably Alzheimer's Disease” (ROTTAPHARM BIOTECH S.R.L., priority 2019, published 2024).
